Experimental data from US7094869B2, “Low molecular weight peptidomimetic growth hormone secretagogues” (Genentech, Inc., priority 1994, dated 2006).
Where two headings read alike, the source gives them in different places. Non-standard residues stand in square brackets, D forms with d. Residues, ends and D or L forms follow the SMILES beside them. ξ: configuration not given here. dNMe2Nal = CN[C@H](Cc1ccc2ccccc2c1)C(=O)O; 1Nal = N[C@@H](Cc1cccc2ccccc12)C(=O)O; d2Nal = N[C@H](Cc1ccc2ccccc2c1)C(=O)O; ξ2Nal = NC(Cc1ccc2ccccc2c1)C(=O)O; Nle = CCCC[C@H](N)C(=O)O; Inp = O=C(O)C1CCNCC1; ξK = NCCCCC(N)C(=O)O; Ava = NCCCCC(=O)O; GABA = NCCCC(=O)O

How the values were obtained:
rat pituitary cells = rat pituitary cells (Rattus norvegicus, UniProt O08725); settings: read-out: PIT Cell EC50, GH release, 15 min incubation
Method: Pituitaries from ten rats were removed, the posterior pituitary discarded and the anterior pituitary placed in Hanks' Balanced Salt Solution (HBSS: without calcium chloride, w/o magnesium chloride, w/o magnesium sulfate; Gibco) containing 20 mM HEPES (Gibco) and 100 U/ml penicillin streptomycin (PS: JRH Biosciences). Under sterile conditions, pituitaries were rinsed twice then minced into small fragments with a razor blade. […] After the incubation, fragments were triturated to yield small clumps and single cells. The cells were centrifuged 1000× g for 5 min, resuspended, counted and plated at a final cell concentration of 100,000 cells/ml. Incubation media was DME low glucose media w/NaHCO3 (Gibco) containing 20 mM hepes, 100 U/ml PS and 10% FBS (Hyclone A-111-L). Cells were plated at 0.5 ml per well in 48 well plates (Falcon) and incubated at 37° C. in 5% C02 for three days. For challenges to determine release of other pituitary hormones cells were plated at 200,000 cells per ml with 2 ml per well of a Swell plate (Corning). Challenge: A (inip)bbFK-NH2 stock (or other GHRP) concentration of 1 mM was made in DMSO and diluted with warmed media approximately 30 min prior to use. The highest concentration of DMSO in media was 0.1%. Stock solutions (1 mM) of rat GHRH, somatostatin (Sigma) and GHRP antagonist HwkWfK were made fresh in media and diluted appropriately. The media used in all challenges and washing steps was DME low glucose with 20 mM Hepes, 100 U/ml PS, 10% FBS. Media was warmed to 37° C. and gassed by placing it into the incubator prior to challenge. On day three, the media was discarded and fresh media (approximately 1 ml) added for the first of three washes. After the last wash, the plate was placed back in the incubator for a 15 min pre-incubation. Then cells were washed 2× (with warmed and gassed media) and fresh 0.5 ml media were added for the second 15 min. pre-incubation. After the second pre-incubation cells were washed 2× as above and 0.5 ml of control and test solutions were added for a final 15 min incubation. After this incubation, the media were removed for subsequent GH ELISA. GH ELISA: A two-site ELISA was used to determine rat GH concentration in the media. […] After blocking and washing, standard (rat GH reference preparation: Parlow) and challenge media is diluted 1:20 prior to GH assay were added for a 1 hr room temperature incubation. STATISTICS: The mean for each group was determined and analyzed by one-way analysis of variance with a post-hoc Student-Newman-Keuls. Significance is defined as P<0.05. The EC50 was calculated using a 4-parameter curve-fit program (Kaleidagraph). Three to four independent EC50s were used to derive the mean and SEM. RIA of pituitary hormones: LH, FSH, TSH, and Prolactin were determined with commercially available kits from Amersham, and ACTH levels were determined by a RIA kit from ICN. CALCIUM FLUX EXPERIMENT: Pituitary cells were plated on fibronectin (Collaborative Research) coated two-chambered slide wells (Nunc). After four days in monolayer culture cells were rinsed three times with HBSS (Gibco) in 1% BSA and 15 mM HEPES and then incubated for 30 min at 37° C. with 5 μM Indo-1 AM (Molecular Probes, Eugene) in HBSS also containing 1% pluronic F127 (Molecular Probes). The cells were rinsed once and fresh media added for RT incubation. […] C^++ flux was imaged with a Meridian ACAS 570 using stage scanning at 21 second intervals.

growth hormone secretion = test: GHRP induced growth hormone secretion, intravenous administration (Rat IV); assay type: in vivo; settings: iv injection, serum GH 10 min after injection
Method: Immature weanling female Sprague Dawley rats were purchased from Charles River Labs (Portage, […].) and group housed with water and food available ad libitum. When the rats were 24-30 days old (weighing 50-90 g) they were anesthetized with pentobarbitone (4 mg in 0.5 ml, approximately 60 mg/kg) given by intraperitoneal injection. The rats were then placed briefly on a heated pad, to distend their tail veins, and given an intravenous tail vein injection of the peptides 20 minutes after receiving the anesthetic. The intravenous injection was of 0.1 ml using a 1 ml syringe. The injections contained graded doses of peptides or the vehicle (vehicle for all peptides given intravenously was a buffer of 20 mM sodium acetate, 45 g/l mannitol, pH 5.0). Ten minutes after the intravenous injection blood was taken by cardiac puncture, using a 3 ml syringe, and the rats were then sacrificed.
The blood was then clotted on ice, centrifuged, serum decanted and frozen for subsequent analysis using the rat GH ELISA described elsewhere in the application. For the rat GH ELISA the serum was diluted 1:50 or 1:250, depending on the expected serum GH concentrations achieved, and assayed in duplicate.

[1] = Table IV, formula III compounds
[2] = Table III, formula IV compounds

rat pituitary cells, sequence (O08725 whole entry, the tested form may be a part): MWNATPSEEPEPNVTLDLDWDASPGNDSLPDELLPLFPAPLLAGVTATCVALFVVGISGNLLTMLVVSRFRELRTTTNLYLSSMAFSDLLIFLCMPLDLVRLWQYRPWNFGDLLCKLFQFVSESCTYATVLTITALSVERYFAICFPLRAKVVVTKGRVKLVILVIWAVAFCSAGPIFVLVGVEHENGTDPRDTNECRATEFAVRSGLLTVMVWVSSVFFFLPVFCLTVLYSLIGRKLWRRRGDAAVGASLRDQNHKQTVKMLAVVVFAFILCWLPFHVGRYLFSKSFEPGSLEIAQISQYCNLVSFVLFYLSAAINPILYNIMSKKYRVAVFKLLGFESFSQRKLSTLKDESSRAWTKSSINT

Compound | EC50 (rat pituitary cells; [1]) [nM] | RAT IV ED50 (growth hormone secretion; Table IV) [µg] | also measured
CN(C(=O)CCCCN)[C@H](Cc1ccc2ccccc2c1)C(=O)N[C@H](Cc1ccc2ccccc2c1)C(=O)N[C@@H](Cc1ccccc1)C(N)=O [(Ava) nmb b F amide] (H-[Ava][dNMe2Nal][d2Nal]F-NH2) | 1.6 | 20 | 
NCCCCC(NC(=O)[C@H](Cc1ccccc1)NC(=O)[C@@H](Cc1ccc2ccccc2c1)NC(=O)C(Cc1ccc2ccccc2c1)NC(=O)CCCN)C(N)=O (stereo partly drawn) [(Ab) b b F K amide, (4-aminobutanoyl)-DβNal-DβNal-Phe-Lys-amide] (H-[GABA][ξ2Nal][d2Nal]F[ξK]-NH2) |  |  | EC50 (rat pituitary cells; [2]): 0.4 nM; RAT IV ED50 (growth hormone secretion; Table III): 1 µg
NCCCC[C@H](NC(=O)[C@H](Cc1ccccc1)NC(=O)[C@@H](Cc1c[nH]c2ccccc12)NC(=O)[C@@H](Cc1ccc2ccccc2c1)NC(=O)CN)C(N)=O [G b w F K amide] (H-G[d2Nal][dW]FK-NH2) |  |  | EC50 (rat pituitary cells; [2]): 0.8 nM; RAT IV ED50 (growth hormone secretion; Table III): 4.8 µg
NCCCC[C@H](NC(=O)[C@H](Cc1ccccc1)NC(=O)[C@@H](Cc1ccc2ccccc2c1)NC(=O)[C@@H](Cc1ccc2ccccc2c1)NC(=O)[C@@H](N)Cc1c[nH]cn1)C(N)=O [H b b F K amide] (H-H[d2Nal][d2Nal]FK-NH2) |  |  | EC50 (rat pituitary cells; [2]): 2.4 nM; RAT IV ED50 (growth hormone secretion; Table III): 15.4 µg
O=C(N[C@H](Cc1ccc2ccccc2c1)C(=O)N[C@@H](CO)Cc1ccc2ccccc2c1)C1CCNCC1 [(inip) b bol] |  |  | EC50 (rat pituitary cells; Table V, formula II compounds): 2 nM; RAT IV ED50 (growth hormone secretion; Table V): 10 µg
CN(C(=O)[C@@H](Cc1ccc2ccccc2c1)NC(=O)C1CCNCC1)[C@@H](CN)Cc1ccc2ccccc2c1 [(inip) b mbm] |  |  | EC50 (rat pituitary cells; Table V, formula II compounds): 7 nM; RAT IV ED50 (growth hormone secretion; Table V): 20 µg
NC(=O)[C@H](Cc1cccc2ccccc12)NC(=O)[C@@H](Cc1ccc2ccccc2c1)NC(=O)[C@@H](Cc1ccc2ccccc2c1)NC(=O)C1CCNCC1 [(inip) b b npA amide] (H-[Inp][d2Nal][d2Nal][1Nal]-NH2) | 0.2 | 5 | 
COC(=O)[C@H](Cc1ccccc1)NC(=O)[C@@H](Cc1ccc2ccccc2c1)NC(=O)[C@@H](Cc1ccc2ccccc2c1)NC(=O)C1CCNCC1 [(inip) b b F Me ester] (H-[Inp][d2Nal][d2Nal]F-OMe) | 2.8 | 2 | 
NC[C@H](Cc1ccc2ccccc2c1)NC(=O)[C@@H](Cc1ccc2ccccc2c1)NC(=O)C1CCNCC1 [(inip) b Bmn] |  |  | EC50 (rat pituitary cells; Table V, formula II compounds): 36 nM; RAT IV ED50 (growth hormone secretion; Table V): 20 µg
CN(C(=O)C1CCNCC1)[C@H](Cc1ccc2ccccc2c1)C(=O)N[C@H](Cc1ccc2ccccc2c1)C(=O)N[C@@H](Cc1ccccc1)C(=O)O [(inip) nmb b F acid] (H-[Inp][dNMe2Nal][d2Nal]F-OH) | 1.4 | 5 | 
NCCCCC(=O)N[C@H](Cc1ccc2ccccc2c1)C(=O)N[C@H](Cc1ccc2ccccc2c1)C(=O)N[C@@H](Cc1ccccc1)C(N)=O [(Ava) b b F amide] (H-[Ava][d2Nal][d2Nal]F-NH2) | 17.1 | 100 | 
CCCC[C@H](NC(=O)[C@@H](Cc1ccc2ccccc2c1)NC(=O)[C@@H](Cc1ccc2ccccc2c1)NC(=O)C1CCNCC1)C(N)=O [(inip) b b nL amide] (H-[Inp][d2Nal][d2Nal][Nle]-NH2) | 4.3 | 3.3 | 
NCCCC[C@H](NC(=O)[C@H](Cc1ccccc1)NC(=O)[C@@H](Cc1c[nH]c2ccccc12)NC(=O)[C@@H](Cc1c[nH]c2ccccc12)NC(=O)CN)C(N)=O [G w w F K amide] (H-G[dW][dW]FK-NH2) |  |  | EC50 (rat pituitary cells; [2]): 2.1 nM; RAT IV ED50 (growth hormone secretion; Table III): 2.5 µg
CN(C(=O)[C@@H](Cc1ccc2ccccc2c1)NC(=O)C1CCNCC1)[C@H](Cc1ccc2ccccc2c1)C(=O)NC1CCNCC1 [(inip) b nmb api, (inip)-DβNal-(N-Me-DβNal)-N-(4-piperidinyl) amide] | 0.5 | 2 | 
O=C(N[C@H](Cc1ccc2ccccc2c1)C(=O)N[C@H](Cc1ccc2ccccc2c1)C(=O)N[C@@H](Cc1ccccc1)C(=O)O)C1CCNCC1 [(inip) b b F acid, (inip)-DβNal-DβNal-Phe] (H-[Inp][d2Nal][d2Nal]F-OH) | 0.2 | 2 | 
